Laboratory results published in publication PMC12456999, “Sulfonyl Homoserine Lactones Are Tunable Probes to Inhibit the Quorum Sensing Receptor RhlR and Reduce Swarming Motility in Pseudomonas aeruginosa” (ACS Infectious Diseases, 2025).
Like-named read-outs stand apart in the source and are kept apart here. Marks after values point to notes of the source that are not given here.

What was measured:
RhlR = target: T1, RhlR (Pseudomonas aeruginosa, UniProt P54292); test: E. coli (JLD271) RhlR reporter antagonism assay, in competition with BHL; type: cell-based; conditions: for max. RhlR inhibition (%): BHL at 10 μM set to 0%, media control set to 100%
T1 construct: expressed in transfected cells; host or cells: E. coli JLD271 (K-12 ΔlacX74 sdiA271::Cam) carrying pJN105-R2 (RhlR expression) and pSC11-rhlI (rhlI'-lacZ reporter)
Method: To start, the sulfonyl HLs were evaluated for their ability to antagonize RhlR using a previously described E. coli strain (JLD271) harboring a RhlR expression plasmid and a rhlI reporter plasmid. This E. coli reporter produces RhlR, and protein activity in the presence of an added small molecule can be measured via the production of β-galactosidase as quantified via luminescence (see Methods). Compounds were screened in competition against RhlR’s native ligand, BHL (at its EC50 value in this strain, 10 μM), over a range of concentrations to generate antagonism dose–response curves (see Supporting Information) and calculate IC50 values (listed in Table ). A small set of compounds was also screened for RhlR agonism in the E. coli reporter; the agonism assay format was identical to the antagonism assay, except no BHL was added.
RhlR activity in E. coli strain JLD271 (ΔsdiA) was measured via a β-galactosidase reporter (rhI-lacZ) using the Promega Beta-Glo Assay System as previously described. RhlR activity in P. aeruginosa PA14 (ΔrhlIΔlasI) was measured via a GFP reporter (rhlA-gfp). […] See Supporting Information for both reporter protocols.
Supporting Information — Aguirre-Figueroa et al.
E. coli and P. aeruginosa RhlR reporter assay protocols.
E. coli RhlR reporter assay. RhlR activity in E. coli strain JLD271 (ΔsdiA) was measured via a β-galactosidase reporter using the Promega Beta-Glo® Assay System as previously described.10 A schematic of the reporter plasmids and assay protocol is shown in Scheme S1. Briefly, a single colony of E. coli JLD271 harboring the RhlR expression plasmid pJN105-R and the rhlI-lacZ transcriptional fusion reporter pSC11-R (Table S1) was grown in LB medium with 100 μg/mL ampicillin and 10 μg/mL gentamicin overnight (~16 h). The culture was diluted 1:10 in fresh LB medium and grown to an OD600 = 0.25 (0.23–0.28) (~0.5 h). Arabinose was added to a final concentration of 4 mg/mL to induce the expression of pJN105-R. Aliquots (2 μL) of compound DMSO stock solution or serial dilution were added to the inner wells (i.e., non-periphery rows) of a 96-well microtiter plate. To six inner wells, DMSO alone (vehicle) was added as a negative control. For agonism assays, BHL was added to six inner wells as a positive control (to achieve 1 mM). For antagonism assays, BHL was added to six inner wells as a positive control and to all of the other sample wells except for the vehicle control wells (to achieve 10 μM ). Subculture (198 μL) was then dispensed into each inner well. To the outer (periphery) wells, 200 μL of water were added to maintain humidity during incubation. Plates were then incubated for 4 h (shaking) at 37 °C.
Scheme S1. Schematic of E. coli reporter plasmids and assay. (A) Representation of plasmids used in the heterologous reporter system. (B) General reporter assay workflow. BioRender used in […]
After the incubation period, the OD600 of each well was measured using a plate reader. Cell dilution plates were prepared by transferring 10 μL from the incubated culture plate wells to a fresh 96-well plate and adding 90 μL of 18 MΩ water to each well. Next, 10 μL aliquots of diluted Beta-Glo® reagent (1:2 with 18 MΩ water) were added to each well of a white 384-well microtiter plate, followed by 10 μL of culture from each well of the dilution plate. The 384-well plate was incubated (without shaking; i.e., static) for 30 min at 30 °C. After incubation, luminescence of each well was measured using a plate reader. To determine levels of RhlR activity, raw luminescence was divided by OD600 to correct for growth variation and then normalized to the negative (0%) and positive (100%) control wells.
Dose-response reporter assay data for compounds in the E. coli RhlR reporter.
Dose-response curves for RhlR antagonism by compounds against 10 μM BHL using the E. coli JLD271 RhlR reporter are provided below. Compound names are indicated on the x-axis of each plot.
All assays performed in triplicate as at least three separate biological replicates. […]

bacterial growth = test: Effect on bacterial growth (OD600 over time); type: cell-based; conditions: at >2 mM concentrations
Method: All new compounds were fully characterized for purity and identity (see Supporting Information). […] The remaining compounds had no effect on growth over the concentration range tested. All compounds were tested in bacteriological assays in triplicate and in at least three separate trials using unique cultures. IC50 and EC50 values in reporter assays were calculated using GraphPad Prism software (version 9.0) with a variable slope sigmoidal curve fit.

[1] = IC50, E. coli JLD271 RhlR reporter, against 10 μM BHL
[2] = E. coli JLD271 RhlR reporter, against 10 μM BHL
[3] = read-out: inhibitory potency on average (74, 75 and 18), average over the C4, C5 and C6 ASHLs, E. coli RhlR reporter

T1 sequence (P54292 whole entry): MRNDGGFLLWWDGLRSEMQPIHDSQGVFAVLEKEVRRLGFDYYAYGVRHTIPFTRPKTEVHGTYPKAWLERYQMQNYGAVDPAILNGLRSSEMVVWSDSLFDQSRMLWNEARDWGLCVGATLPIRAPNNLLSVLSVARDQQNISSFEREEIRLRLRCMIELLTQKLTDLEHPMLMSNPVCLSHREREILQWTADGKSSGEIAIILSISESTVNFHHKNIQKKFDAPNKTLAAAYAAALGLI

| SMILES | max. RhlR inhibition (%) (RhlR; E. coli RhlR reporter) | IC50 (RhlR; [1]) [µM] | also measured |
| --- | --- | --- | --- |
| Cc1ccc(CS(=O)(=O)N[C@H]2CCOC2=O)cc1 [Compound 13, 4-Me BnSHL] | 90% | 918 | fold less potent than parent 4-Me PHL (RhlR; E. coli RhlR reporter IC50, comparator printed as 19): ~170 fold |
| O=C1OCC[C@@H]1NS(=O)(=O)Cc1ccc([N+](=O)[O-])cc1 [Compound 16, 4-NO2 BnSHL] | 97% | 1290 | – |
| CCCCCCS(=O)(=O)N[C@H]1CCOC1=O [Compound 18] | 77% | – | IC50 (RhlR; [2]): 36.4 µM; IC50 (RhlR; [3]): ~28 µM |
| O=C1OCC[C@@H]1NS(=O)(=O)Cc1ccc(Br)cc1 [Compound 19, 4-Br BnSHL] | 77% | 348 | fold more potent in RhlR than 13 or 16 (RhlR; E. coli RhlR reporter IC50): approximately 3 fold |
| O=C1OCC[C@@H]1NS(=O)(=O)Cc1ccc(Cl)cc1 [Compound 21, 4-Cl BnSHL] | 99% | 219 | fold more potent in RhlR than 13 or 16 (RhlR; E. coli RhlR reporter IC50): approximately 3 fold |
| O=C1OCC[C@@H]1NS(=O)(=O)Cc1ccc(F)cc1 [Compound 22, 4-F BnSHL] | 94% | 205 | fold more potent in RhlR than 13 or 16 (RhlR; E. coli RhlR reporter IC50): approximately 3 fold |
| O=C1OCC[C@@H]1NS(=O)(=O)c1ccc(Cl)cc1Cl [Compound 24, 2,4-di-Cl-BSHL] | 99% | 1590 | – |
| O=C1OCC[C@@H]1NS(=O)(=O)c1ccc(Cl)cc1 [Compound 26] | 96% | 452 | effect on bacterial growth (bacterial growth): modest effect on bacterial growth |
| O=C1OCC[C@@H]1NS(=O)(=O)c1cccc(Cl)c1 [Compound 28, 3-chloro-BSHL] | 97% | 143 | fold more potent than 26 and 27 (RhlR; E. coli RhlR reporter IC50): 3 fold |
| O=C1OCC[C@@H]1NS(=O)(=O)c1ccc(I)cc1 [Compound 36] | 99% | 295 | – |
| O=C1OCC[C@@H]1NS(=O)(=O)c1ccc(C(F)(F)F)cc1 [Compound 37] | 99% | 333 | – |
| O=C1OCC[C@@H]1NS(=O)(=O)c1cccc(Cl)c1Cl [Compound 42, 2,3-di-Cl BSHL] | 95% | 67.8 | fold lower IC50 value than 3-Cl BSHL (28) (RhlR; E. coli RhlR reporter IC50): over 2 fold |
| O=C1OCC[C@@H]1NS(=O)(=O)Cc1ccc(Cl)c(Cl)c1 [Compound 44, 3,4-di-Cl BnSHL] | 82% | 205 | – |
| O=C1OCC[C@@H]1NS(=O)(=O)c1ccc(Cl)c(Cl)c1Cl [Compound 45, 2,3,4-tri-Cl BSHL] | 80% | 1030 | reduction of potency relative to 3,4-Cl BSHL (43) (RhlR; E. coli RhlR reporter IC50): at least 2 orders of magnitude |
| COc1cccc(S(=O)(=O)N[C@H]2CCOC2=O)c1 [Compound 48] | 88% | 210 | – |
| O=C1OCC[C@H]1NS(=O)(=O)c1ccc(Cl)c(Cl)c1 [Compound 55, 3,4-di-Cl BSHL] | 99% | 195 | – |

| SMILES | max. RhlR inhibition (%) (RhlR; E. coli RhlR reporter) | IC50 (RhlR; [1]) [µM] | also measured |
| --- | --- | --- | --- |
| O=C1OCC[C@@H]1NS(=O)(=O)c1ccc(Cl)c(C(F)(F)F)c1 [Compound 60] | 90% | 93.1 | – |
| O=C1OCC[C@@H]1NS(=O)(=O)c1ccc(F)c([N+](=O)[O-])c1 [Compound 71, 3-NO2,4-F BSHL] | 62% | 257 | – |
| CCCS(=O)(=O)N[C@H]1CCOC1=O [Compound 72, C3-AHSL] | 45 ^f % | – | activity profile in RhlR (RhlR; E. coli RhlR reporter dose-response curves): weak partial agonist |
| O=C1OCC[C@@H]1NS(=O)(=O)c1ccc(Br)c(Cl)c1 [Compound 73, 3-Cl, 4-Br BSHL] | 98% | 118 | fold less potent than 43 (RhlR; E. coli RhlR reporter IC50): over 2 fold |
| CCCCS(=O)(=O)N[C@H]1CCOC1=O [Compound 74] | 70% | – | IC50 (RhlR; [2]): 35.2 µM; IC50 (RhlR; [3]): ~28 µM |
| O=C1OCC[C@@H]1NS(=O)(=O)c1ccc(F)c(C(F)(F)F)c1 [Compound 76] | 84% | 69.4 | – |
| O=C1OCC[C@@H]1NS(=O)(=O)c1cc(F)c(F)c(F)c1 [Compound 86, 3,4,5-F BSHL] | 80% | 24.5 | potency gain (RhlR; 33 vs 16, 43 vs 24, 86 vs 45, E. coli RhlR reporter IC50): ≤ 40 fold; fold higher potency relative to 3,4-di-Cl BSHL (43) (RhlR; E. coli RhlR reporter IC50): over 2 fold |
| O=C1OCC[C@@H]1NS(=O)(=O)c1cc(Cl)c(F)c(Cl)c1 [Compound 87, 3,5-Cl-4F BSHL] | 85% | 68 | fold higher potency relative to 3,4-di-Cl BSHL (43) (RhlR; E. coli RhlR reporter IC50): no change in potency |
| O=C1OCC[C@@H]1NS(=O)(=O)c1cccc(F)c1 [Compound 88, 3-fluoro BSHL] | 92% | 120 | – |
| O=C1OCC[C@@H]1NS(=O)(=O)c1c(Cl)cccc1Cl [Compound 89, 2,6-di-Cl-BSHL] | 86% | > 1000 | – |
| O=C1OCC[C@@H]1NS(=O)(=O)c1cc(Cl)ccc1Cl [Compound 90, 2,5-di-Cl BSHL] | 92% | 1100 | – |
| O=C1OCC[C@@H]1NS(=O)(=O)c1ccc(F)cc1 [Compound 91] | 97% | 301 | – |
| O=C1OCC[C@@H]1NS(=O)(=O)c1ccccc1F [Compound 92, 2-fluoro-BSHL] | 91% | 863 | – |
| Cc1cccc(S(=O)(=O)N[C@H]2CCOC2=O)c1 [Compound 93] | 95% | 127 | – |
| Cc1ccc(CC(=O)N[C@H]2CCOC2=O)cc1 [Compound C19, 4-Me PHL, reference compound] | 89% | 5.46 | – |
| O=C(Cc1ccc(C(F)(F)F)cc1)N[C@H]1CCOC1=O [Compound C20, 4-CF3 PHL, reference compound] | 93% | 10.3 | – |
